Test results reported in US7786142B2, “Heterocyclic compounds as pSTAT3/IL-6 inhibitors” (Orchid Research Laboratories, Ltd., priority 2005, dated 2010).

Assays:
HCT116 cells = experiment: Anti-cancer screen (MTT), HCT116 cells; assay type: cell-based; settings: Homo sapiens, HCT-116, HCT116, 48 hours, concentrations tested 0.01-100 μM
Procedure: (§1) Experimental drugs are screened for anti-cancer activity in three cell lines for their GI50, TGI and LC50 values (using five concentrations for each compound). The cell lines are maintained in DMEM containing 10% fetal bovine serum. 96 well micro titer plates are inoculated with cells in 100 μL for 24 hours at 37° C., 5% CO2, 95% air and 100% relative humidity. 5000 HCT116 cells/well, 5000 NCIH460 cells/well and 5000 U251 cells/well are plated. A separate plate with these cell lines is also inoculated to determine cell viability before the addition of the compounds (T0), (See Table I).
(§2) Following 24-hours incubation, experimental drugs are added to the 96 well plates. Each plate contains one of the above cell lines and the following in triplicate: five different concentrations (0.01, 0.1, 1, 10 and 100 μM) of four different compounds, appropriate dilutions of a cytotoxic standard and control (untreated) wells. Compounds are dissolved in DMSO to make 20 mM stock solutions on the day of drug addition and frozen at −20° C. Serial dilutions of these 20 mM stock solutions are made in complete growth medium such that 100 μL of these drug solutions in medium, of final concentrations equaling 0.01, 0.1, 1, 10 and 100 μM can be added to the cells in triplicate. Standard drugs whose anti-cancer activity has been well documented and which are regularly used are Doxorubicin and SAHA, (See Table I).
(§3) For T0 measurement, 24 hours after seeding the cells, 10 μL of 3-(4,5-Dimethyl-2-thiazolyl)-2,5-diphenyl-2H-tetrazolium (MTT) solution per well is added and incubation carried out for 3 hours at 37° C., 5% CO2, 95% air and 100% relative humidity, protected from light. Cells incubated with compounds for 48 hours are treated similarly except with the addition of 20 μL MTT solution per well and a subsequent incubation under the same conditions. After 3 hours of MTT incubation, well contents are aspirated carefully followed by addition of 150 μL DMSO per well. Plates are agitated to ensure solution of the formazan crystals in DMSO and absorbance read at 570 nm, (See Table I).
(§4) Percent growth is calculated for each compound's concentration relative to the control and zero measurement wells (T0; viability right before compound addition). If a test well's O.D. value is greater than the T0 measurement for that cell line % Growth=(test−zero)/(control−zero)×100

MDAMB-231/U 251 = experiment: Anti-cancer screen (MTT), MDAMB-231/U 251 cells; assay type: cell-based; settings: MDAMB-231/U 251, 48 hours, concentrations tested 0.01-100 μM; for CC50: read-out: LC50 (the source's name)
Procedure: as §1, §2, §3, §4

[1] = tested on: NCIH460, HCT116, MDAMB-231/U 251; experiment: Anti-cancer screen, mean GI50 over the cell lines; assay type: cell-based
Procedure: as §1, §2, §3, §4

NCIH460 cells = experiment: Anti-cancer screen (MTT), NCIH460 cells; assay type: cell-based; settings: Homo sapiens, NCI-H460, NCIH460, 48 hours, concentrations tested 0.01-100 μM; for CC50: read-out: LC50 (the source's name)
Procedure: as §1, §2, §3, §4

Row | SMILES | melting point [°C] | other results
1 | OC(COc1cccc2[nH]c3ccccc3c12)CN1CCCC1 (stereo not drawn) [Example 6, 1-(9H-carbazol-4-yloxy)-3-pyrrolidin-1-ylpropan-2-ol] |  | GI50 (HCT116 cells): > 100 µM; IC (TGI) (HCT116 cells): > 100 µM; LC50 (concentration for 50% net cell kill relative to T0) (HCT116 cells): > 100 µM; GI50 (MDAMB-231/U 251): > 100 µM; IC (TGI) (MDAMB-231/U 251): > 100 µM; CC50 (MDAMB-231/U 251): > 100 µM; GI50 [1]: 10.5 µM; GI50 (NCIH460 cells): 10 µM; IC (TGI) (NCIH460 cells): 42 µM; CC50 (NCIH460 cells): 75 µM
2 | CSc1ccc(CN2CCN(CC(O)COc3cccc4[nH]c5ccccc5c34)CC2)cc1 (stereo not drawn) [Example 33, 1-(9H-carbazol-4-yloxy)-3-[4-(4-methylthiobenzyl)piperazin-1-yl]propan-2-ol] | 69 to 71 | 
3 | N#Cc1ccc(C(=O)N2CCC(NCC(O)COc3cccc4[nH]c5ccccc5c34)CC2)cn1 (stereo not drawn) [Example 70, 1-(9H-carbazol-4-yloxy)-3-{[1-(6-cyanonicotine-3-carbonyl)piperidin-4-yl]amino}propan-2-ol] |  | GI50 (HCT116 cells): 5 µM; IC (TGI) (HCT116 cells): 23 µM; LC50 (concentration for 50% net cell kill relative to T0) (HCT116 cells): 67 µM; GI50 (MDAMB-231/U 251): 3.5 µM; IC (TGI) (MDAMB-231/U 251): 8.9 µM; CC50 (MDAMB-231/U 251): 57 µM; GI50 [1]: 10.5 µM; GI50 (NCIH460 cells): 23 µM; IC (TGI) (NCIH460 cells): 50 µM; CC50 (NCIH460 cells): 78 µM
4 | COc1cccc2sc(NC(=O)CN3CCN(CC(O)COc4cccc5[nH]c6ccccc6c45)CC3)nc12 (stereo not drawn) [Example 61, 2-{4-[3-(9H-carbazol-4-yloxy)-2-hydroxypropyl]-piperazin-1-yl}-N-(4-methoxy-1,3-benzothiazol-2-yl)acetamide] | 289 to 292 | 
5 | O=C(c1cnc2ccccc2n1)N1CCN(CC(O)COc2cccc3[nH]c4ccccc4c23)CC1 (stereo not drawn) [Example 46, 1-(9H-carbazol-4-yloxy)-3-[4-(quinoxaline-2-carbonyl)piperazin-1-yl]propan-2-ol] | 89 to 92 | 
6 | OC(COc1cccc2[nH]c3ccccc3c12)CN1CCN(Cc2ccc(Br)cc2F)CC1 (stereo not drawn) [Example 32, 1-(9H-carbazol-4-yloxy)-3-[4-(4-bromo-2-fluorobenzyl)piperazin-1-yl]propan-2-ol] | 68 to 70 | 
7 | O=C(c1ccc(Br)s1)N1CCN(CC(O)COc2cccc3[nH]c4ccccc4c23)CC1 (stereo not drawn) [Example 56, 3-[4-(5-Bromothiophene-2-carbonyl)piperazin-1-yl]-1-(9H-carbazol-4-yloxy) propan-2-ol] | 78 to 80 | 
8 | OC(COc1cccc2[nH]c3ccccc3c12)CN1CCN(Cc2nccs2)CC1 (stereo not drawn) [Example 28, 1-(9H-carbazol-4-yloxy)-3-{4-[(thiazol-2-yl)methyl]piperazin-1-yl}propan-2-ol] | 57 to 62 | 
9 | O=C(/C=C/c1ccc2c(c1)OCO2)N1CCN(CC(O)COc2cccc3[nH]c4ccccc4c23)CC1 (stereo not drawn) [Example 45, 1-(9H-carbazol-4-yloxy)-3-{4-[(2E)-3-(1,3-benzodioxol-5-yl)acryloyl]piperazin-1-yl}propan-2-ol] | 90 to 93 | 
10 | O=C(c1ccc(-c2ccc([N+](=O)[O-])cc2)o1)N1CCN(CC(O)COc2cccc3[nH]c4ccccc4c23)CC1 (stereo not drawn) [Example 40, 1-(9H-carbazol-4-yloxy)-3-{4-[5-(4-nitrophenyl)-2-furoyl]piperazin-1 yl}propan-2-ol] | 101 to 104 | 
11 | CC(=O)c1ccc(S(=O)(=O)N2CCN(CC(O)COc3cccc4[nH]c5ccccc5c34)CC2)cc1 (stereo not drawn) [Example 75, 3-[4-(4-Acetylphenylsulfonyl)piperazin-1-yl]-1-(9H-carbazol-4-yloxy)propan-2-ol] | 183 to 185 | 
12 | COc1ccc(CC(=O)N2CCN(CC(O)COc3cccc4[nH]c5ccccc5c34)CC2)cc1 (stereo not drawn) | 166 to 169 | 
13 | O=C(CCc1cc2ccccc2[nH]1)N1CCN(CC(O)COc2cccc3[nH]c4ccccc4c23)CC1 (stereo not drawn) [Example 51] | 112 to 114 | 
14 | COc1ccc(C(=O)N2CCN(CC(O)COc3cccc4[nH]c5ccccc5c34)CC2)cc1OC (stereo not drawn) [Example 42, 1-(9H-carbazol-4-yloxy)-3-[4-(3,4-dimethoxybenzoyl)piperazin-1-yl]propan-2-ol] | 98 to 101 | 
15 | O=C(Cc1c(F)c(F)c(F)c(F)c1F)N1CCC(NCC(O)COc2cccc3[nH]c4ccccc4c23)CC1 (stereo not drawn) [Example 69, 1-(9H-carbazol-4-yloxy)-3-{[1-(pentafluorophenyl)acetylpiperidin-4-yl]amino}propan-2-ol] | 80 to 83 | 
16 | O=C(Cc1ccc(F)cc1)N1CCN(CC(O)COc2cccc3[nH]c4ccccc4c23)CC1 (stereo not drawn) | 79 to 81 | 
17 | O=C(c1cccs1)N1CCN(CC(O)COc2cccc3[nH]c4ccccc4c23)CC1 (stereo not drawn) [Example 39, 1-(9H-carbazol-4-yloxy)-3-[4-(thiophene-2-carbonyl)piperazin-1-yl]propan-2-ol] | 80 to 83 | 
18 | N#Cc1ccc(C(=O)N2CCN(CC(O)COc3cccc4[nH]c5ccccc5c34)CC2)cn1 (stereo not drawn) [Example 47, 1-(9H-carbazol-4-yloxy)-3-[4-(6-cyanonicotine-3-carbonyl)piperazin-1-yl]propan-2-ol] | 92 to 95 | 
19 | OC(COc1cccc2[nH]c3ccccc3c12)CN1CCN(CC2CC2)CC1 (stereo not drawn) [Example 29, 1-(9H-carbazol-4-yloxy)-3-[4-(cyclopropylmethyl)piperazin-1-yl]propan-2-ol] | 51 to 56 | 
20 | O=C(c1cc2ccccc2[nH]1)N1CCN(CC(O)COc2cccc3[nH]c4ccccc4c23)CC1 (stereo not drawn) [Example 38, 1-(9H-carbazol-4-yloxy)-3-[4-(1H-indole-2-carbonyl)piperazin-1-yl]propan-2-ol] | 215 to 218 | 
21 | O=C(CN1CCN(CC(O)COc2cccc3[nH]c4ccccc4c23)CC1)Nc1ccccc1 (stereo not drawn) [Example 62, 2-{4-[3-(9H-carbazol-4-yloxy)-2-hydroxypropyl]-piperazin-1-yl}-N-phenyl acetamide] | 69 to 71 | 
22 | O=C(c1cc2ccccc2o1)N1CCN(CC(O)COc2cccc3[nH]c4ccccc4c23)CC1 (stereo not drawn) [Example 54, 3-[4-(1-Benzofuran-2-ylcarbonyl)piperazin-1-yl]-1-(9H-carbazol-4-yloxy)propan-2-ol] | 93 to 96 | 
23 | O=C(Cc1ccc(O)c(F)c1)N1CCN(CC(O)COc2cccc3[nH]c4ccccc4c23)CC1 (stereo not drawn) | 111 to 113 | 
24 | O=C(c1ccc2c(c1)OCO2)N1CCC(NCC(O)COc2cccc3[nH]c4ccccc4c23)CC1 (stereo not drawn) [Example 68, 3-{[1-(1,3-Benzodioxol-5-ylcarbonyl)piperidin-4-yl]amino}-1-(9H-carbazol-4-yloxy)propan-2-ol] | 88 to 90 | 
25 | O=C(c1ccc2c(c1)OCO2)N1CCN(CC(O)COc2cccc3[nH]c4ccccc4c23)CC1 (stereo not drawn) [Example 50, 1-(9H-carbazol-4-yloxy)-3-[4-(1,3-benzodioxol-5-ylcarbonyl)piperazin-1-yl]propan-2-ol] | 70 to 73 | 
26 | O=C(Cc1c(F)c(F)c(F)c(F)c1F)N1CCN(CC(O)COc2cccc3[nH]c4ccccc4c23)CC1 (stereo not drawn) | 93 to 96 | 
27 | COc1ccc(CC(=O)N2CCC(NCC(O)COc3cccc4[nH]c5ccccc5c34)CC2)cc1 (stereo not drawn) [Example 71, 1-(9H-carbazol-4-yloxy)-3-{[1-(4-methoxyphenylacetyl)piperidin-4-yl]amino}propan-2-ol] | 54 to 57 | 
28 | O=C(c1cc([N+](=O)[O-])[nH]n1)N1CCN(CC(O)COc2cccc3[nH]c4ccccc4c23)CC1 (stereo not drawn) [Example 36, 1-(9H-carbazol-4-yloxy)-3-[4-(5-nitro-1H-pyrazole-3-carbonyl)piperazin-1-yl]propan-2-ol] | 140 to 144 | 
29 | O=C(c1ccco1)N1CCN(CC(O)COc2cccc3[nH]c4ccccc4c23)CC1 (stereo not drawn) [Example 37, 1-(9H-carbazol-4-yloxy)-3-[4-(2-furoyl)piperazin-1-yl]propan-2-ol] | 85.1 to 89.1 | 
30 | COc1cc(OC)c(CN2CCN(CC(O)COc3cccc4[nH]c5ccccc5c34)CC2)c(OC)c1 (stereo not drawn) [Example 34, 1-(9H-carbazol-4-yloxy)-3-[4-(2,4,6-trimethoxybenzyl)piperazin-1-yl]propan-2-ol] | 119 to 122 | 
